Here are results for 17 compounds from PMC8842224 (Journal of Medicinal Chemistry, 2022).

Experiment [1] has as its target T1, human A1AR (Homo sapiens, UniProt P30542).
T1 sequence (P30542 1-326): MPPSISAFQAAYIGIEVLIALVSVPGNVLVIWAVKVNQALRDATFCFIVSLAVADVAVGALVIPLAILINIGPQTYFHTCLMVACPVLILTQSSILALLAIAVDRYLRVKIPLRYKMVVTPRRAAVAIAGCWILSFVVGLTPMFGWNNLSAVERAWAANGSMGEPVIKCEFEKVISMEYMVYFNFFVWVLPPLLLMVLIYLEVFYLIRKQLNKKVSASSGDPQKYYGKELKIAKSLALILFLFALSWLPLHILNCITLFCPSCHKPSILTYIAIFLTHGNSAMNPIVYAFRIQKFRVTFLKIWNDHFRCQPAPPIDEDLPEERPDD
The following applies: for Ki: read-out: hA1 Ki, displacement of specific [3H]DPCPX binding, human CHO cells, ± SEM, n = 3; for Exp absolute binding affinity (ΔGbind): experimental, A1AR.

The target in another experiment is human A2AAR (Homo sapiens, UniProt P29274).
The target of another experiment is T2, human A2BAR (Homo sapiens, UniProt P29275).
T2 sequence (P29275 1-332): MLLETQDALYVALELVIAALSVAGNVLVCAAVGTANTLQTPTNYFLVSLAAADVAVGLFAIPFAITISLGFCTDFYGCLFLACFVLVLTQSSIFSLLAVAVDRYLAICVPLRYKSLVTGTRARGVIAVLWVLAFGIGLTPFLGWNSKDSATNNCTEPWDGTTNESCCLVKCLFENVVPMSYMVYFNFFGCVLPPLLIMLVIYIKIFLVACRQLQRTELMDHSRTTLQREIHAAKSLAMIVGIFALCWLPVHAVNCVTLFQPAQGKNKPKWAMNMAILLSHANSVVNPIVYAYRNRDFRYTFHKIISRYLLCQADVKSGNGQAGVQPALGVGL
The following applies: read-out: hA2B Ki; displacement of specific [3H]DPCPX binding, human HEK-293 cells, ± SEM, n = 3.

The target in experiment [2] is T1, human A1AR. Kind of experiment: biochemical.
[3] abbreviates: read-out: hA2A Ki, displacement of specific [3H]ZM241385 binding, human HeLa cells, ± SEM, n = 3.

Each structure is given as a SMILES string. Like-named read-outs stand apart in the source and are kept apart here.

human A2AAR, sequence (P29274 whole entry): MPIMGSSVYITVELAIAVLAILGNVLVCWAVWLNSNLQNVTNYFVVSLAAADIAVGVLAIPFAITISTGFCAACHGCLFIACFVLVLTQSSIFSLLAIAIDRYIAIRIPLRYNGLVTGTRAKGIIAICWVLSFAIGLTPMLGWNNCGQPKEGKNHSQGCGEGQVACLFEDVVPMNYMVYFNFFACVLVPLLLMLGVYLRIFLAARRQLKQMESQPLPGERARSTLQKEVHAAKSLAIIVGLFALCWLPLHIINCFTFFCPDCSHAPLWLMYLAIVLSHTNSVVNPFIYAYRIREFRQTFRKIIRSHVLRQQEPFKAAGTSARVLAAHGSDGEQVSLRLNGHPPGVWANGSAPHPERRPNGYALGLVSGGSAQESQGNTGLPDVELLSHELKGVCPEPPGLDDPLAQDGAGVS

With `N#Cc1c(-c2ccccc2)nc(N)nc1-c1cccc(F)c1` [18e], the Ki at human A1AR [1] worked out at 13.4 ± 4.1 nM; on human A2AAR (setting [3]), 19.5 ± 3.3 nM; on human A2BAR, 186 ± 11 nM.
In the case of `N#Cc1c(-c2ccccc2)nc(N)nc1-c1cccc(Cl)c1` [18f], the Ki was determined as 4.25 ± 1.1 nM on human A1AR [1], 15.5 ± 2.4 nM at human A2AAR (setting [3]) and 177 ± 13 nM on human A2BAR.
Consider `COc1cccc(-c2nc(N)nc(-c3ccccc3)c2C#N)c1` [18g], for which the Ki at human A1AR [1] worked out at 2.08 ± 0.16 nM; on human A2AAR (setting [3]) it was 6.91 ± 1.52 nM; at human A2BAR it was 31.2 ± 6.3 nM.
Consider `N#Cc1c(-c2ccccc2)nc(N)nc1-c1cccc(O)c1` [18h], for which the Ki turned out to be 1.49 ± 0.43 nM at human A1AR [1], 10.2 ± 3.52 nM at human A2AAR (setting [3]) and 50.1 ± 8.2 nM at human A2BAR.
On the same counts, the results for `COc1cc(OC)cc(-c2nc(N)nc(-c3ccccc3)c2C#N)c1` [18t] are 2.58 ± 0.67 nM, 1.73 ± 0.33 nM and 45.1 ± 3.7 nM.
As to `N#Cc1c(-c2ccccc2)nc(N)nc1-c1ccco1` [18x], the Ki at human A1AR [1] was determined as 9.7 ± 1.2 nM; on human A2AAR (setting [3]), 10.1 ± 3.7 nM; on human A2BAR, 21.8 ± 2.7 nM.
`N#Cc1c(-c2ccccc2)nc(N)nc1-c1cccs1` [18y]: the Ki was 17.3 ± 4.4 nM at human A1AR [1], 24.9 ± 4.6 nM on human A2AAR (setting [3]) and 40.6 ± 3.7 nM on human A2BAR.
Regarding `CNc1nc(-c2ccccc2)c(C#N)c(-c2cc(Cl)cc(Cl)c2)n1` [19aj], on human A1AR [1], the “Exp absolute binding affinity (ΔGbind)” value is listed as -10.32 kcal/mol and the Ki worked out at 27 ± 3.6 nM. The Ki on human A1AR [2] is below 50 nM.
On to `CNc1nc(-c2ccccc2)c(C#N)c(-c2cc(OC)cc(OC)c2)n1` [19am], for which the “Exp relative binding affinity (ΔΔGbind)” value is given as 0,11 kcal/mol at human A1AR [1] (Lig 2 relative to Lig 1 = 19a) and -0.98 kcal/mol on human A1AR [1] (Lig 2 relative to Lig 1 = 19ab). For the same compound, the “Exp absolute binding affinity (ΔGbind)” value on human A1AR [1] was -10.85 kcal/mol. Also, the figures for the Ki at human A1AR [1], on human A2AAR (setting [3]) and at human A2BAR were 11 ± 0.8 nM, 11.5 ± 4.7 nM and 60 ± 5.1 nM, respectively.
For `CCNc1nc(-c2ccccc2)c(C#N)c(-c2ccc3c(c2)OCO3)n1` [19ap], the Ki at human A1AR [1] was 6.7 ± 0.67 nM; on human A2AAR (setting [3]), 894 ± 42 nM; at human A2AAR (read-out: ki_a2a, supplementary csv, unit inferred) it was 895 nM; on human A2BAR, 217 ± 18 nM.
Consider `N#Cc1c(-c2ccccc2)nc(Nc2ccccc2)nc1-c1ccc2c(c1)OCO2` [19aq], for which the Ki is 11.4 ± 3.7 nM at human A1AR [1], 28 ± 9.6 nM at human A2AAR (setting [3]) and 188 ± 23 nM on human A2BAR.
On the same counts, the results for `N#Cc1c(-c2ccccc2)nc(Nc2ccccc2)nc1-c1ccco1` [19au] are 33.7 ± 7.3 nM, 2.15 ± 0.11 nM and 14.7 ± 4.9 nM.
Take `CNc1nc(-c2ccccc2)c(C#N)c(-c2ccsc2)n1` [19az]: on human A1AR [1], the A1AR selectivity is recorded as above 1000 fold, the “Exp absolute binding affinity (ΔGbind)” value is recorded as -10.05 kcal/mol and the Ki came out at 42.8 ± 3.7 nM. Besides, the “Exp relative binding affinity (ΔΔGbind)” value at human A1AR [1] (Lig 2 relative to Lig 1 = 19a) stood at 0.91 kcal/mol. For the same compound, the “Exp relative binding affinity (ΔΔGbind)” value on human A1AR [1] (Lig 2 relative to Lig 1 = 19bb) is reported as -0.17 kcal/mol. On human A1AR [2], this compound came in with a Ki below 50 nM.
For `CNc1nc(-c2ccccc2)c(C#N)c(-c2cccnc2)n1` [19bd], on human A1AR [1], the A1AR selectivity is recorded as above 1000 fold, the “Exp absolute binding affinity (ΔGbind)” value is listed as -10.52 kcal/mol and the Ki is 19.3 ± 7.1 nM. Further, at human A1AR [1] (Lig 2 relative to Lig 1 = 19a), the “Exp relative binding affinity (ΔΔGbind)” value was determined as 0.44 kcal/mol. The “Exp relative binding affinity (ΔΔGbind)” value on human A1AR [1] (Lig 2 relative to Lig 1 = 19bb) is given as -0.64 kcal/mol. On human A1AR [2], this compound gave a Ki below 50 nM.
Turning to `N#Cc1c(-c2ccccc2)nc(Nc2ccccc2)nc1-c1ccccc1F` [19e], the Ki on human A1AR [1] is 6.25 ± 1.02 nM; on human A2AAR (setting [3]), 52.5 ± 6.2 nM; on human A2BAR it was 107 ± 10 nM.
In the case of `CNc1nc(-c2ccccc2)c(C#N)c(-c2cccc(C#N)c2)n1` [19s], the “Exp relative binding affinity (ΔΔGbind)” value on human A1AR [1] (Lig 2 relative to Lig 1 = 19a) is given as -0.66 kcal/mol. Moreover, the “Exp absolute binding affinity (ΔGbind)” value at human A1AR [1] is -11.62 kcal/mol. Further, the values for the Ki at human A1AR [1], on human A2AAR (setting [3]) and on human A2BAR were 2.99 ± 0.71 nM, 78.5 ± 6.7 nM and 34.6 ± 5.7 nM, respectively.
`CCNc1nc(-c2ccccc2)c(C#N)c(-c2cccc(C#N)c2)n1` [19t]: the Ki worked out at 2.46 ± 0.18 nM at human A1AR [1], 155 ± 21 nM on human A2AAR (setting [3]) and 14.2 ± 3.8 nM at human A2BAR.
